According to patent US12049519B2, “Peptide for the delivery of anionic materials” (The Queen's University of Belfast, priority 2019, dated 2024):
Residues, ends and D or L forms follow the SMILES beside them.

Legend:
[1] = test system: NCTC-929 fibroblast cells; test: Cell viability, MTS assay; type: cell-based; details: N:P ratios of 15 and 20
Protocol: (§1) FIG. 11: Cell viability of A) MCF-7 and MDA-MB-231 breast cancer cells, B) DU145 and PC-3 prostate cancer cells, and C) NCTC-929 fibroblast, HMEC-1 endothelial, and HaCaT keratinocyte cells following transfection with Peptide 10. Cells were transfected with Peptide 10 at a range of N:P ratios for 4 h before replacement with complete medium. After 24 h, cells were treated with MTS reagent for 2 h in dark conditions. A Bio-Tek Powerwave XS plate reader was then used to read absorbance at 490 nm with Gen5 software and any background absorbance was subtracted from readings. Untreated cells were considered to be 100% viable and viability under all conditions was calculated relative to this.
(§2) Cell viability was evaluated by MTS assay with CellTiter 96 AQueous One Solution Cell Proliferation Assay (Promega, UK). MDA-MB-231 and PC-3 cells were seeded at a density of 1.5×10^4 cells per well and MCF-7, and DU145cells seeded at 1.2×10^4 cells per well, ARPE, NCTC-929, HMEC-1, and HaCaT cells seeded at 1.0×10^4, and allowed to adhere in a 96 well plate. Cells were transfected CellTiter reagent was added to each well 24 h post transfection to give a final volume of 10% and returned to the incubator for 2 h. Absorbance was read at 490 nm using a Bio-Tek Powerwave XS plate reader with Gen5 software and any background absorbance was subtracted from readings. Cell viability was expressed as a percentage of the untreated control where the untreated control is considered to be 100% viable.

HMEC-1 endothelial cells = test: Cell viability, MTS assay; type: cell-based; details: irrespective of the N:P ratio
Protocol: as §1, §2

HaCaT keratinocyte cells = test: Cell viability, MTS assay; type: cell-based; details: N:P ratios of 15 and 20
Protocol: as §1, §2

[2] = test system: breast and prostate cancer cell lines; test: Cell viability, MTS assay; type: cell-based; details: even at a high N:P ratio of 20
Protocol: as §1, §2

[3] = Cell viability, MTS assay (FIGS. 11 and 12B); type: cell-based; details: N:P ratio of 6 to 15; 24 h post transfection; relative to untreated cells
Protocol: as §1
FIG. 12: Transfection efficiency and cell viability of nanoparticles comprising pEGFP-N1 and Peptide 10 assessed in ARPE human retinal cells. (A) Cells were transfected for 4 h with Peptide 10/pEGFP-N1 nanoparticles at a range of N:P ratios. Following transfection, medium was replaced with culture medium supplemented with 10% serum and incubated for 48 h before imaging using i) light and ii) fluorescence microscopy. Scale bar=400 μm. iii) Quantification of transfection efficiency was subsequently analysed by flow cytometry at 4% gating. […] A Bio-Tek Powerwave XS plate reader was then used to read absorbance at 490 nm with Gen5 software and any background absorbance was subtracted from readings. […]

[4] = test system: MDA-MB-231 breast cancer cells; test: Transfection with peptide/pEGFP-N1 nanoparticles, flow cytometry; type: cell-based; details: N:P ratios of 6 to 10
Protocol: (§3) FIG. 5: Transfection efficiency of nanoparticles comprising pEGFP-N1 and A) Peptide 7, B) Peptide 8, C) Peptide 9, D) Peptide 10, E) Peptide 11 and F) Peptide 12 assessed in MCF-7 and
(§4) MDA-MB-231 breast cancer cells. Cells were transfected for 4 h with peptide/pEGFP-N1 nanoparticles at a range of N:P ratios. Following transfection, medium was replaced with DMEM supplemented with 10% FCS and incubated for 48 h before quantification of transfection efficiency by flow cytometry at 4% gating.
(§5) In order to assess the ability of peptide and composite nanoparticles to transfect cells, transfections were carried out in 96-well tissue culture plates.
(§6) MCF-7 and MDA-MB-231 breast cancer cells were seeded at a density of 2.25×10^4 and 2.5×10^4 cells per well respectively, and allowed to adhere overnight at 37° C. with 5% CO2 (FIG. 5).
(§7) Medium was replaced with OptiMEM (Invitrogen, UK) 2 h prior to transfection and the cells returned to the incubator at 37° C. with 5% CO2. […]
(§8) Transfected cells were washed with phosphate buffered saline (PBS) and 2× trypsin used to detach cells at 37° C. in 5% CO2 atmosphere. […] A FACScalibur system (BD Bioscience, UK) or Accuri C6 Plus (BD Bioscience, UK) were used for the detection of green fluorescent protein (GFP) expressing cells at 4% gating (to reduce interference of auto-fluorescence) and results are reported as mean±SEM, n=3.

[5] = test system: MCF-7 breast cancer cells; test: as above; type: cell-based; details: N:P ratios of 6 to 10
Protocol: as §3, §4, §5, §6, §7, §8

pEGFP-N1 = test: DNA complexation efficiency assay, Quant-iT PicoGreen; type: binding
Protocol: FIG. 2: DNA complexation efficiency assay using Quant-iT™ PicoGreen® reagent indicating the efficiency of A) Peptide 7, B) Peptide 8, C) Peptide 9, D) Peptide 10, E) Peptide 11 and F) Peptide 12 to complex 0.5 μg pEGFP-N1 (Accession Number: U55762.1) (a pDNA) at a range of N:P ratios. Peptide/pEGFP-N1 complexes were prepared at a range of N:P ratios from 1 to 20. 50 μl samples of each N:P ratio was pipetted into a 96-well plate with Quant-iT™ PicoGreen® reagent. Sample fluorescence was then analysed by excitation at 480 nm and the fluorescence emission intensity measured at 520 nm using a Synergy 2 Multi-Mode Microplate Reader. Fluorescence was then calculated as a percentage of the control and converted to the percentage DNA complexed.
Peptide complexes and composite complexes were prepared at a range of N:P ratios from 1 to 20 to complex 0.5 μg pEGFP-N1. Quant-iT™ PicoGreen® Reagent (Life Technologies, UK) was diluted 1:200 in TAE buffer and 50 μl was added to each 50 μl sample. Sample fluorescence was analysed by excitation at 480 nm and the fluorescence emission intensity measured at 520 nm using a Synergy 2 Multi-Mode Plate Reader. Fluorescence intensity of a naked pDNA control (an N:P ratio of 0) was taken as 100% fluorescence and 0% complexed, and any fluorescence detected from samples was taken to be un-complexed. […]

[6] = test system: MDA-MB-231 breast cancer cells; test: Endosomal escape study: transfection with and without chloroquine; type: cell-based; details: N:P 10, with and without 10 μM chloroquine, cell line not given
Protocol: (§9) FIG. 6: Transfection efficiency of nanoparticles comprising pEGFP-N1 and Peptides 7 to 12 assessed in A) MCF-7 and B) MDA-MB-231 breast cancer cells with and without chloroquine, a reagent known to facilitate endosomal escape. Cells were transfected for 4 h with peptide/pEGFP-N1 nanoparticles at N:P 10. 10 μM chloroquine was added to cells in appropriate wells along with the nanoparticles. Following transfection, medium was replaced with DMEM supplemented with 10% FCS and incubated for 48 h before quantification of transfection efficiency by flow cytometry at 4% gating. […] Statistical analysis was carried out using an unpaired t test (*=P<0.05, ** =P<0.01, ***=P<0.001)
(§10) In some instances, cells were treated with chloroquine (a reagent known to facilitate endosomal escape) (FIG. 6). For endosomal escape studies, 1 mM chloroquine (Sigma-Aldrich, UK) was added to the cells immediately before transfection, giving a final concentration of 10 μM chloroquine in the nanoparticle transfection mix.

[7] = test system: MCF-7 breast cancer cells; test: as above; type: cell-based; details: N:P 10, with and without 10 μM chloroquine, cell line not given
Protocol: as §9, §10

[8] = Nanoparticle hydrodynamic size, Malvern Zetasizer (DLS); type: physicochemical; details: low N:P ratios
Protocol: FIG. 3: Mean hydrodynamic size and zeta potential of nanoparticles prepared with pEGFP-N1 and A) Peptide 7, B) Peptide 8, C) Peptide 9, D) Peptide 10, E) Peptide 11 or F) Peptide 12 at a range of N:P ratios. For example, at an N:P ratio of 10 with Peptide 7, nanoparticles comprise 0.5 μg of pEGFP-N1 and 5.7 μg Peptide 7. Nanoparticles were made up to 50 μl with molecular grade water and incubated for 30 min at room temperature before hydrodynamic size and zeta potential were measured using a Malvern Zetasizer Nano ZS instrument.
Peptide complexes (an N:P ratio of 0) and composite complexes were prepared at a range of N:P ratios from 1 to 20 to complex 0.5 μg pEGFP-N1. For example, at an N:P ratio of 10 with Peptide 7, nanoparticles comprise 0.5 μg of pEGFP-N1 and 5.7 μg Peptide 7. Nanoparticles were made up to 50 μl with molecular grade water and incubated for 30 min at room temperature before a Malvern Zetasizer Nano ZS instrument with DTS software (Malvern Instruments, UK) was used to measure the mean hydrodynamic particle size of nanoparticles. A 40 μl disposable microcuvette was used to measure the mean size by number of nanoparticles formed by Dynamic Light Scattering (DLS) at 20° C. Results were reported as mean±SEM, and all measurements were performed in triplicate.

Compound | toxicity (cell viability studies) [1] | cytotoxic effects (cell viability studies) (HMEC-1 endothelial cells) | toxicity (cell viability studies) (HaCaT keratinocyte cells) | toxicity (cell viability studies) [2] | viability at 24 h [3] [%] | % transfection [4] [%] | % transfection [5] [%] | maximum complexation efficiency (pEGFP-N1) [%] | transfection regardless of chloroquine [6] | transfection regardless of chloroquine [7] | particle size as a function of N:P ratio [8]
N=C(N)NCCC[C@H](NC(=O)[C@H](CCCNC(=N)N)NC(=O)[C@H](CCCNC(=N)N)NC(=O)[C@H](Cc1c[nH]c2ccccc12)NC(=O)[C@H](CCCNC(=N)N)NC(=O)[C@H](CCCNC(=N)N)NC(=O)[C@H](CCCNC(=N)N)NC(=O)[C@H](Cc1c[nH]cn1)NC(=O)[C@H](Cc1c[nH]cn1)NC(=O)[C@H](Cc1c[nH]cn1)NC(=O)[C@@H](N)CS)C(=O)N[C@@H](Cc1c[nH]cn1)C(=O)N[C@@H](Cc1c[nH]cn1)C(=O)N[C@@H](Cc1c[nH]cn1)C(=O)N[C@@H](CS)C(=O)O [Peptide 10, CHHHRRRWRRRHHHC] (H-CHHHRRRWRRRHHHC-OH) | weak toxicity | no cytotoxic effects | weak toxicity | weak toxicity, if any | > 60 |  |  |  |  |  | 
CEHHRRRWRRRHHEC [Peptide 12, comparative linear peptide, outside the scope of the invention] |  |  |  |  |  | > 10 | > 10 | 70 | Very low | Very low | 
CRRRRWRRRRC [Peptide 11, comparative linear peptide, outside the scope of the invention] |  |  |  |  |  |  |  |  | Very low | Very low | large particles form at lower N:P ratios
